The values below come from patent US7288567B2, “Inhibitors of histone deacetylase” (Methylgene Inc., priority 2000, dated 2007).

A word on the IC50: it is the concentration that gives 50% inhibition.

The structures appear in SMILES notation.

Assay [1] relates to histone deacetylase enzyme in nuclear extracts from H446 cells (pooled HDACs). Description: Histone deacetylase inhibition, H446 nuclear extracts (pooled HDACs). The class given is biochemical, human. Conditions: for IC50: H446 nuclear extract, [3H]-acetylated histone substrate; for pooled HDACs percent inhibition: percent inhibition at 20 μM (footnote). On the procedure: HDAC inhibitors were screened against histone deacetylase enzyme in nuclear extracts prepared from the human small cell lung cancer cell line H446 (ATTC HTB-171) and against a cloned recombinant human HDAC-1 enzyme expressed and purified from a Baculovirus insect cell expression system.
For deacetylase assays, 20,000 cpm of the [^3H]-metabolically labeled acetylated histone substrate (M. Yoshida et al., J. Biol. Chem. 265(28): 17174-17179 (1990)) was incubated with 30 μg of H446 nuclear extract or an equivalent amount of the cloned recombinant hHDAC-1 for 10 minutes at 37° C. The reaction was stopped by adding acetic acid (0.04 M, final concentration) and HCl (250 mM, final concentration). The mixture was extracted with ethyl acetate and the released [^3H]-acetic acid was quantified by scintillation counting. For inhibition studies, the enzyme was preincubated with compounds at 4° C. for 30 minutes prior to initiation of the enzymatic assay. IC50 values for HDAC enzyme inhibitors were determined by performing dose response curves with individual compounds and determining the concentration of inhibitor producing fifty percent of the maximal inhibition.

Assay [2] deals with T1, recombinant human HDAC-1 enzyme (rHDAC-1) (Homo sapiens, UniProt Q13547).
T1 construct: made in house; host or cells: Baculovirus insect cell expression system
T1 sequence (Q13547 whole entry): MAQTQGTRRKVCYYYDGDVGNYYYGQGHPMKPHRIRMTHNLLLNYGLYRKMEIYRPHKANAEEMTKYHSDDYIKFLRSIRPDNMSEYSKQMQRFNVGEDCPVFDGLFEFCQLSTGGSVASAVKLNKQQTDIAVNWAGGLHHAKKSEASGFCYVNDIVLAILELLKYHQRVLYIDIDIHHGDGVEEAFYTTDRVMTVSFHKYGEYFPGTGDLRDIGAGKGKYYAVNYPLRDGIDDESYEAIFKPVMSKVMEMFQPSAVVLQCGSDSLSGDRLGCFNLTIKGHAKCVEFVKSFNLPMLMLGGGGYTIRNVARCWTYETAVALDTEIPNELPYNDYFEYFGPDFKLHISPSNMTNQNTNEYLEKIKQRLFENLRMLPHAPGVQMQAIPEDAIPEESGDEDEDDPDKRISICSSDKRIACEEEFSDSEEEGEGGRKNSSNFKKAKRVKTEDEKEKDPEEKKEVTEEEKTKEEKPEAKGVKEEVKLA
Description: Histone deacetylase inhibition, recombinant human HDAC-1. It counts as biochemical. To be noted: cloned recombinant human HDAC-1, Baculovirus insect cell expression; read-out: rHDAC-1 IC50. On the procedure:
The reaction was stopped by adding acetic acid (0.04 M, final concentration) and HCl (250 mM, final concentration). The mixture was extracted with ethyl acetate and the released [^3H]-acetic acid was quantified by scintillation counting. For inhibition studies, the enzyme was preincubated with compounds at 4° C. for 30 minutes prior to initiation of the enzymatic assay. IC50 values for HDAC enzyme inhibitors were determined by performing dose response curves with individual compounds and determining the concentration of inhibitor producing fifty percent of the maximal inhibition.

Regarding `O=C(CCCCCC(=O)c1cc2ccccc2[nH]1)NO` [Compound 112, N-Hydroxy-6-[(2-indolyl)carbonyl]hexanamide], the concentration for half-maximal inhibition (IC50) in assay [1] is 0.25 µM; in assay [2], 0.039 µM.

In the case of `CC(CCCCC(=O)c1ccc2ccccc2c1)CC(=O)NO` (stereo not shown) [Compound 199, N-Hydroxy-3-methyl-7-(2-naphthoyl)heptanamide], the values for the IC50 in assay [1] and in assay [2] were 0.08 µM and 0.03 µM, respectively.

For `O=C(CCCCCCC(=O)c1cnc2ccccc2c1)NO` [Compound 141b, N-Hydroxy-7-[(3-quinolinyl)carbonyl]heptanamide], the “pooled HDACs percent inhibition @ 1 μM” value in assay [1] was 71%@ 1 μM. The IC50 in assay [2] came to 0.035 µM.

Consider `O=C(CCCCCCC(=O)c1ccc(Oc2ccccc2)cc1)NO` [Compound 104, N-Hydroxy-7-(4-phenoxybenzoyl)heptanamide], for which, in assay [1], the “pooled HDACs percent inhibition @ 1 μM” value is on record as 61%@ 1 μM. The IC50 in assay [2] was 0.16 µM.

As for `O=C(CCCCCCC(=O)c1ccc(Nc2ccccc2)cc1)NO` [Compound 138a, N-Hydroxy-7-[4-(N-phenyl)benzoyl]heptanamide], the “pooled HDACs percent inhibition @ 1 μM” value in assay [1] was 83%@ 1 μM. In addition, the IC50 in assay [2] turned out to be 0.004 µM.

As for `O=C(CCCCCn1cnc2ccccc2c1=O)NO` [Compound 238a, N-Hydroxy-6-[3-(4-Oxo-4H-quinazolinyl)]hexanamide], the “pooled HDACs percent inhibition @ 1 μM” value in assay [1] is on record as 0%@ 1 μM. Besides, the half-inhibitory concentration (IC50) in assay [2] is 0.05 µM.

Take `CC(=O)SCC(=O)CCCCCC(=O)c1cc2ccccc2s1` [Compound 160, 1-Acetylthio-2,8dioxo-8-(2-benzo[b]thiophene)-octane]: the IC50 in assay [1] was 0.08 µM; in assay [2], 0.13 µM.

For the compound `O=C(CCCCCCC(=O)c1ccoc1)NO` [Compound 52j, N-hydroxy-7-(3-furanoyl)heptanamide], the IC50 in assay [1] stood at 3 µM; in assay [2] it was 0.45 µM.

Take `O=C(CCCCCCC(=O)c1ccco1)NO` [Compound 52i, N-hydroxy-7-(2-furanoyl)-heptanamide]: the IC50 in assay [1] was found to be 3 µM; in assay [2], 0.1 µM.

For `COC(C/C=C/C=C/C(=O)Nc1ccccc1N)c1ccccc1` (stereo not shown) [Compound 19, N-(2-Aminophenyl)-7-methoxy-7-phenyl-2,4-heptadienamide], the IC50 in assay [1] is over 100 µM; in assay [2], under 20 µM.

Turning to `O=C(CCCCCCC(=O)c1ccc2ccccc2c1)Nc1ccccc1O` [Compound 66, N-(2-Hydroxyphenyl)-7-(2-naphthoyl)heptanamide], the “pooled HDACs percent inhibition” value in assay [1] is given as 0%. Besides, in assay [2], the IC50 came to 2.3 µM.

Consider `O=C(NCCCCCC(=O)c1ccc(-c2ccccc2)cc1)Nc1ccccc1O` [Compound 93, N-(2-Hydroxyphenyl)-N′-[5-((4-biphenyl)carbonyl)pentyl]urea], for which the “pooled HDACs percent inhibition” value in assay [1] is 0%. Besides, the IC50 in assay [2] was 6.4 µM.

For the compound `Nc1ccccc1NC(=O)CCCCCCC(=O)c1ccc(-c2ccsc2)cc1` [Compound 117, N-(2-Aminophenyl)-7-[4-(3-thiophenyl)benzoyl]heptanamide], the “pooled HDACs percent inhibition” value in assay [1] is recorded as 0%. For the same compound, in assay [2], the IC50 was determined as 9 µM.

For the compound `CSCC(=O)CCCCCCC(=O)c1ccccc1` [Compound 159b, 1-Methylthio-2,9-dioxo-9-phenyl-nonane], the “pooled HDACs percent inhibition @ 5 μM” value in assay [1] worked out at 14%@ 5 μM. The IC50 in assay [2] came to 0.5 µM.

Turning to `O=C(CCCCCCC(=O)c1ccccc1)CSc1ccccc1` [Compound 159d, 1-Phenylthio-2,9-dioxo-9-phenyl-nonane], the values for the IC50 in assay [1] and in assay [2] were 50 µM and 5 µM, respectively.

`O=C(CCCCCCC(=O)c1cccc2ccccc12)NO` [Compound 52f, N-hydroxy-7-(1-naphthoyl)heptanamide]: the IC50 in assay [1] came out at 0.55 µM; in assay [2], 0.01 µM.

For the compound `Nc1ccccc1NC(=O)CCCCCCC(=O)c1cc2ccccc2s1` [Compound 164, N-(2-Aminophenyl)-7-[(2-benzo[b]thiophene)carbonyl]heptanamide], the “pooled HDACs percent inhibition” value in assay [1] came to 18%. For the same compound, the IC50 in assay [2] turned out to be 2.3 µM.

As for `O=C(CCCCCCC(=NO)c1cc2ccccc2o1)NO` (mixture of isomers) [Compound 98, N-Hydroxy-8-(E)-oximino-8-(2-benzofuryl)octanamide], the IC50 in assay [1] was determined as 0.04 µM; in assay [2], 0.03 µM.

In the case of `Nc1ccccc1NC(=O)CCCCCn1nnc2ccccc2c1=O` [Compound 239b], in assay [1], the “pooled HDACs percent inhibition” value is reported as 14%. Further, the IC50 in assay [2] stood at 8.1 µM.

As for `O=C(CCCCCC(=O)c1cc2ccccc2s1)NO` [Compound 113, N-Hydroxy-6-[(2-benzo[b]thiophene)carbonyl]hexanamide], the “pooled HDACs percent inhibition @ 1 μM” value in assay [1] worked out at 33%@ 1 μM. For the same compound, the IC50 in assay [2] came to 0.13 µM.

Consider `Nc1ccccc1NC(=O)NCCCCCC(=O)c1ccc(-c2ccccc2)cc1` [Compound 92, N-(2-Aminophenyl)-N′-[5-((4biphenyl)carbonyl)pentyl]urea], for which, in assay [1], the “pooled HDACs percent inhibition” value was 0%. Besides, the IC50 in assay [2] came to 15.9 µM.

For the compound `CC(=O)SCC(=O)CCCCCCC(=O)c1ccccc1` [Compound 159a, 1-Acetylthio-2,9-dioxo-9-phenyl-nonane], the IC50 in assay [1] worked out at 0.05 µM; in assay [2] it was 0.1 µM.

With `Cn1c(C(=O)CCCCCCC(=O)CS)cc2ccccc21` [Compound 166, 1-Mercapto-2,9-dioxo-9-(2-N-methylindolyl)-nonane], the IC50 is 0.05 µM in assay [1] and 0.42 µM in assay [2].

Turning to `O=C(CS)CCCCCCC(=O)c1cc2ccccc2s1` [Compound 163, 1-Mercapto-2,9-dioxo-9-(2-benzo[b]thiophene)-nonane], the IC50 worked out at 0.04 µM in assay [1] and 0.01 µM in assay [2].

Take `COC(C/C=C/C=C/C(=O)NO)c1ccc(N(C)C)cc1` (stereo not shown) [Compound 17, N-Hydroxy7-methoxy-7-[4-(N,N-dimethylamino)phenyl]-2,4-heptadienamide]: the values for the IC50 in assay [1] and in assay [2] were 4 µM and 0.25 µM, respectively.

`O=C(CCCCCCC(=O)c1ccc(Nc2nccs2)cc1)NO` [Compound 138e, N-Hydroxy-7-[4-(N-2-aminothiazolyl)benzoyl]heptanamide]: the figures for the IC50 in assay [1] and in assay [2] were 0.02 µM and 0.004 µM, respectively.

With `COc1ccc(NC(=O)CCCCCCC(=O)c2ccc(-c3ccccc3)cc2)c(N)c1` [Compound 81, N-(4-(3-Amino)anisole)-7-[(4-biphenyl)carbonyl]heptanamide], in assay [1], the “pooled HDACs percent inhibition” value is listed as 27%. The IC50 in assay [2] was 25 µM.

For the compound `Nc1ccccc1NC(=O)CCCCCCC(=O)c1ccc(Br)cc1` [Compound 114, N-(2-Aminophenyl)-7-(4-bromobenzoyl)heptanamide], the IC50 in assay [1] is over 20 µM; in assay [2] it was 6.3 µM.

For the compound `O=C(CS)CCCCCC(=O)c1cc2ccccc2s1` [Compound 161, 1-Mercapto-2,8-dioxo-8-(2-benzo[b]thiophene)-octane], the IC50 in assay [1] came out at 0.094 µM; in assay [2], 0.071 µM.

As for `CN(c1ccccc1)c1ccc(C(=O)CCCCCCC(=O)NO)cc1` [Compound 138b, N-Hydroxy-7-[4-(N-methyl-N-phenyl)benzoyl]heptanamide], the IC50 was 0.049 µM in assay [1] and 0.008 µM in assay [2].

For `O=C(CCCCCCC(=NO)c1ccco1)NO` [Compound 51i, N-Hydroxy-8-oximino-8-(2-furanyl)octanamide], the values for the IC50 in assay [1] and in assay [2] were 0.9 µM and 0.1 µM, respectively.

Take `O=C(CCCCCCC(=O)c1ccc(Nc2ccccn2)cc1)NO` [Compound 138d, N-Hydroxy-7-[4-(N-2-aminopyridyl)benzoyl]heptanamide]: the results for the IC50 in assay [1] and in assay [2] were 0.02 µM and 0.004 µM, respectively.

On to `O=C(CS)CCCCCCC(=O)c1ccccc1` [Compound 159e, 1-Mercapto-2,9-dioxo-9-phenyl-nonane], for which the IC50 in assay [1] and in assay [2] was 0.05 µM throughout.

For `COc1ccc(C(=O)CCCCCCC(=O)Nc2ccccc2N)cc1` [Compound 53b, N-(2-Aminophenyl)-7-(p-anisoyl)heptanamide], in assay [1], the “pooled HDACs percent inhibition” value came out at 0%. Moreover, in assay [2], the IC50 was determined as 1 µM.

As for `O=C(CCCCCCC(=O)c1ccccc1)CSCc1ccccc1` [Compound 159c, 1-Benzylthio-2,9-dioxo-9-phenyl-nonane], the “pooled HDACs percent inhibition @ 5 μM” value in assay [1] amounted to 0%@ 5 μM. Further, the IC50 in assay [2] is 5 µM.

Take `CC(=O)SCC(=O)CCCCCCC(=O)c1cc2ccccc2[nH]1` [Compound 167, 1-Acetylthio-2,9-dioxo-9-(2-indolyl)-nonane]: the IC50 stood at 0.3 µM in assay [1] and 0.4 µM in assay [2].

`CC(=O)SCC(=O)CCCCCCC(=O)c1cc2ccccc2s1` [Compound 162, 1-Acetylthio-2,9-dioxo-9-(2-benzo[b]thiophene)-nonane]: the IC50 amounted to 0.04 µM in assay [1] and 0.035 µM in assay [2].

In the case of `O=C(CCCCCn1nnc2ccccc2c1=O)NO` [Compound 238b, N-Hydroxy-6-[3-(4-oxo-4H-benzo[d][1,2,3]triazinyl)]hexanamide], in assay [1], the “pooled HDACs percent inhibition @ 1 μM” value turned out to be 20%@ 1 μM. The IC50 in assay [2] worked out at 0.76 µM.
